Measurements reported in US10246455B2, “Histone deacetylase inhibitors” (Taipei Medical University, priority 2014, dated 2019).

Assays:
[1] = system: human glioblastoma (U87-MG-LucNeo cells) xenograft; assay: Orthotopic tumor size measurement (bioluminescence imaging); type: in vivo, mice; settings: Compound 7 25 mg/kg versus SAHA 150 mg/kg and TMZ 25 mg/kg
Source text: Another parallel set of xenografted nude mice treated with drug or vehicle treatment as described above were used in this experiment.

[2] = system: human colorectal HCT116 xenograft; assay: In vivo antitumor activity assay, HCT116 xenograft; settings: for inhibition of human colorectal HCT116 xenograft growth: day 22 after the first dosing
Source text: The antitumor effect of the two test compounds were examined in mice xenografted with human PC3 prostate cancer cells or HCT116 colorectal cells.
Five million PC3 cells were subcutaneously inoculated into specific pathogen-free male athymic mice (strain BALB/cAnN.Cg-Foxn1nu/CrlNarl) from the National Laboratory Animal Center, Taiwan. Mice were subsequently fed under specific pathogen-free conditions and provided with sterile water and food. When the tumor volume reached 150 to 200 mm^3, mice were assigned to groups randomly and treated with vehicle control or Compound 7 or 5b at 25/50/100 mg/kg. The compound was administered once a day, 5 days/week for 2 weeks (n=6) by oral administration. Tumor volume and body weight change were measured twice a week. At the end of the experiments (day 25 after first dosing), animals were euthanized in a CO2-containing chamber, and the tumors were collected and fixed in formaldehyde. The terminal deoxynucleotidyl transferase-mediated dUTP nick end labeling assay (TUNEL) was conducted for apoptosis detection. Tumor tissue sections were analyzed using a FITC In Situ Cell death detection kit (Roche) and fluorescence microscopy. Tissue treated with DNase was used as the positive control. Green fluorescence labeled nucleus indicates the induction of DNA fragmentation.

[3] = system: TSGH (gastric carcinoma); assay: IC50 in human cancer cell lines (inhibiting HDAC): TSGH; settings: read-out: IC50, inhibiting HDAC in human cancer cell lines
Method: (§2) More specifically, the IC50 values of test compounds were determined by carrying out a fluorimetric histone deacetylase assay following the manufacturer's instructions. For a pan-HDAC assay, HeLa nuclear extracts were used as a source of histone deacetylase (BioVision Inc.). Histone deacetylase isomer inhibition assays were conducted using purified recombinant histone deacetylase proteins of the various isomers (BPS Bioscience Inc.). Reactions were performed in 0.1 mol/L KCl, 20 mmol/L HEPES/NaOH at pH 7.9, 20% glycerol, 0.2 mmol/L DTA, 0.5 mmol/L DTT, and 0.5 mmol/L phenylmethylsulfonylfluoride. […] Reactions were carried out in triplicate for each test compound. Each point represented the mean±SD of replicates.

[4] = system: C6 glioma cell line; assay: Cell proliferation in C6 glioma in vitro (MTT); type: cell-based; settings: rat C6 glioma
Source text: C6 glioma cell line was obtained from American Type Culture Collection.

[5] = system: A549 (non-small-cell lung carcinoma); assay: IC50 in human cancer cell lines (inhibiting HDAC): A549; settings: Homo sapiens, A549, read-out: IC50, inhibiting HDAC in human cancer cell lines
[6] = system: MKN-45 (gastric carcinoma); assay: IC50 in human cancer cell lines (inhibiting HDAC): MKN-45; settings: MKN-45, read-out: IC50, inhibiting HDAC in human cancer cell lines
Method: as §2

[7] = system: HDAC1-10; assay: SDS-PAGE and western blot analysis: HDAC1-10 in PC3 cells; type: cell-based, human; settings: 48 hours
Method: More specifically, cells in the logarithmic phase were initially seeded at a density of 1×10^6 in 100 mm^2 dishes. […] IC50 indicia of compound in vitro potency) for the indicated times (i.e., 24 and 48 hours), adherent cells were collected for protein extract preparation. Briefly, cells were lysed with the cell lysis reagent CelLytic™ M (Sigma-Aldrich) containing 1 mM DTT, 1 mM PMSF and protease inhibitors for whole-cell lysate preparation. Equal amounts of lysate (on a protein basis) were then differentiated using the SDS-PAGE, blotted on PVDF membranes, conjugated with various specific primary antibodies, and then probed with appropriate secondary antibodies. The immunoreactive bands were detected using the ECL method and visualized on Kodak Bio-MAX MR film. Proteins from cells were extracted and subjected to the western blotting analysis. β-Actin was used as an internal control. The deacetylase enzyme assay was based on a homogeneous fluorescence release assay. […] After fluorophore from the deacetylated substrates, fluorescent signal was detected.

[8] = system: KB-VIN10 (KB resistant); assay: IC50 against human cancer cell lines: KB-VIN10; settings: Homo sapiens, KB-VIN10, read-out: IC50 ± SD against human cancer cell lines
[9] = system: WI-38 (normal: lung); assay: IC50 against cell lines: WI-38; settings: Homo sapiens, WI-38, read-out: IC50 ± SD against human cancer cell lines
[10] = system: RWPE-1 (normal: prostate); assay: IC50 against cell lines: RWPE-1; settings: Homo sapiens, RWPE-1, read-out: IC50 ± SD against human cancer cell lines
[11] = system: K6 (normal: keratinocyte); assay: IC50 against cell lines: K6; settings: Homo sapiens, read-out: IC50 ± SD against human cancer cell lines
[12] = system: histone and α-tubulin acetylation in MDA-MD-231 breast carcinoma; assay: Western blot: acetylation in MDA-MD-231 cells; type: cell-based, human
Method: More specifically, cells in the logarithmic phase were initially seeded at a density of 1×10^6 in 100 mm^2 dishes. […] Briefly, cells were lysed with the cell lysis reagent CelLytic™ M (Sigma-Aldrich) containing 1 mM DTT, 1 mM PMSF and protease inhibitors for whole-cell lysate preparation. Equal amounts of lysate (on a protein basis) were then differentiated using the SDS-PAGE, blotted on PVDF membranes, conjugated with various specific primary antibodies, and then probed with appropriate secondary antibodies. The immunoreactive bands were detected using the ECL method and visualized on Kodak Bio-MAX MR film.
(§1) Proteins from cells were extracted and subjected to the western blotting analysis. β-Actin was used as an internal control. The deacetylase enzyme assay was based on a homogeneous fluorescence release assay. […] After fluorophore from the deacetylated substrates, fluorescent signal was detected.

[13] = system: LNCaP-104 (prostate carcinoma); assay: IC50 against human cancer cell lines: LNCaP-104; settings: read-out: IC50 ± SD against human cancer cell lines
[14] = system: SCC15 (tongue carcinoma); assay: IC50 against human cancer cell lines: SCC15; settings: SCC-15, read-out: IC50 ± SD against human cancer cell lines
[15] = target: HDAC2 (Homo sapiens, UniProt Q92769); assay: Deacetylase enzyme assay (fluorescence release): HDAC2; type: biochemical; settings: 24-hour study
Chain of HDAC2 (Q92769 whole entry, species assumed): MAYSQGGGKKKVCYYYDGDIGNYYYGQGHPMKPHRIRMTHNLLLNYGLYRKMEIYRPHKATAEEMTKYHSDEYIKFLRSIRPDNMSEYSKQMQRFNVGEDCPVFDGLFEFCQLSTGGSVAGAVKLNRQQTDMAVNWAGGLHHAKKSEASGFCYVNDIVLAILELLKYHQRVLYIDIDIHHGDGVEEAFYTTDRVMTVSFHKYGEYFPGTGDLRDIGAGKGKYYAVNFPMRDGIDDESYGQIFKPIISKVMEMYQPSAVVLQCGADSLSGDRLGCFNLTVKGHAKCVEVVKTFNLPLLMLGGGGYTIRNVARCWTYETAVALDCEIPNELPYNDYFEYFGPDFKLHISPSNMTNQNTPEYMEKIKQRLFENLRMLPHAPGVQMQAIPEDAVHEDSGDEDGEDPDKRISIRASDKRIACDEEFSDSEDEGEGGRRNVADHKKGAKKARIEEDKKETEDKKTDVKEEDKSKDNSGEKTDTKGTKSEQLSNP
Source text: as §1

[16] = system: BJAB (B cell lymphoma); assay: IC50 against human cancer cell lines: BJAB; settings: read-out: IC50 ± SD against human cancer cell lines
[17] = system: DU-145 (prostate carcinoma); assay: IC50 against human cancer cell lines: DU-145; settings: DU-145, read-out: IC50 ± SD against human cancer cell lines
Method: as §2

[18] = system: LNCaP-R1 (prostate carcinoma); assay: IC50 against human cancer cell lines: LNCaP-R1; settings: read-out: IC50 ± SD against human cancer cell lines
Method: as §2

[19] = target: HDAC6 (Homo sapiens, UniProt Q9UBN7); assay: Deacetylase enzyme assay (fluorescence release): HDAC6; type: biochemical; settings: 24-hour study
Chain of HDAC6 (Q9UBN7 whole entry, species assumed): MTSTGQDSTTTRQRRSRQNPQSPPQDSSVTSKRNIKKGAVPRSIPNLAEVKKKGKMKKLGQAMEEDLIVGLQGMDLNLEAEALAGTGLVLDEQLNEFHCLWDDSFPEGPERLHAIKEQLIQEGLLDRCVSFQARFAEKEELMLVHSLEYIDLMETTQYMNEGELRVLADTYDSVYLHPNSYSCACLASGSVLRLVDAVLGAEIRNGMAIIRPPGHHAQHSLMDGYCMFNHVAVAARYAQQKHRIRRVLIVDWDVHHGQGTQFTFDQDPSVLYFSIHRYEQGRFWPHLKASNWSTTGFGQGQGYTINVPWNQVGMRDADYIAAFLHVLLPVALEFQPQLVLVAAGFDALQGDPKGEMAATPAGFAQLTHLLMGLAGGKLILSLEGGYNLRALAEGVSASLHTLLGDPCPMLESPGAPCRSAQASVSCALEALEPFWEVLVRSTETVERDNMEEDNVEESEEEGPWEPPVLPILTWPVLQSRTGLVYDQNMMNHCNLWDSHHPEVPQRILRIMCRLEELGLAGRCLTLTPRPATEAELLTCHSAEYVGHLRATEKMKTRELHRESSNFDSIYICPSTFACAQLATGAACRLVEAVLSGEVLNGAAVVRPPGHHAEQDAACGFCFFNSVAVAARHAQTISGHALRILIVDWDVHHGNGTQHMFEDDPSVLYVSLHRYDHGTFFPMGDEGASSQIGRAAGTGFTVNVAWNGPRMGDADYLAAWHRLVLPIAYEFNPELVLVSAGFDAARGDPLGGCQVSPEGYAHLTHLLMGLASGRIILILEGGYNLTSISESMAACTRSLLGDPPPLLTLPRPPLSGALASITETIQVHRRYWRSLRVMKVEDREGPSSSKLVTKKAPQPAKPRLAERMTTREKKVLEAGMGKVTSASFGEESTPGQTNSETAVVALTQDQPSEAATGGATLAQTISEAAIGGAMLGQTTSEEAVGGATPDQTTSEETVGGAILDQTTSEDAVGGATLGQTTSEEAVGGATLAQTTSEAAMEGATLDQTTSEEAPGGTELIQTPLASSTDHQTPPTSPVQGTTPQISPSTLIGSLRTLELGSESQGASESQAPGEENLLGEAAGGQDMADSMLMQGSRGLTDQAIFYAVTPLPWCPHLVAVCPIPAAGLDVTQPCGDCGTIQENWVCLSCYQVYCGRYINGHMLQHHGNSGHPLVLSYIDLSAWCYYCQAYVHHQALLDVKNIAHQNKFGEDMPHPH
Source text: as §1

Compound: O=C(/C=C/c1cccc(S(=O)(=O)n2ccc3cccnc32)c1)NO [Compound 7, (E)-3-(3-(1H-Pyrrolo[2,3-b]pyridin-1-ylsulfonyl)phenyl)-N-hydroxyacrylamide]
- tumor size (bioluminescence imaging) [1]: decreased the tumor size more than a higher dose of SAHA (150 mg/kg) or the same dose of TMZ (25 mg/kg)
- inhibition of human colorectal HCT116 xenograft growth ([2]; 25 mg/kg): 50-60%
- inhibition of human colorectal HCT116 xenograft growth ([2]; 50 mg/kg): 50-60%
- inhibition of human colorectal HCT116 xenograft growth ([2]; 100 mg/kg): 50-60%
- body weight change ([2]; HCT116 xenograft mice, 25, 50 and 100 mg/kg): without causing much body weight change
- IC50 [3]: 2.1 ± 0.11 µM
- inhibition at 30 µM [4]: ~50%
- IC50 [5]: 1.33 ± 0.19 µM
- IC50 [6]: 2.51 ± 0.81 µM
- inhibition of HDAC1-10 activities in PC3 cells [7]: inhibited HDAC1-10 activities in PC3 cells in a concentration-dependent manner

Compound: COc1ccc(S(=O)(=O)N2CCc3cc(/C=C/C(=O)NO)cnc32)cc1 [Compound 5b, (E)-N-hydroxy-3-(1-(4-methoxyphenylsulfonyl)-2,3-dihydro-1H-pyrrolo[2,3-b]pyridin-5-yl)acrylamide]
- IC50 [8]: 0.085 µM
- IC50 [9]: 0.272 ± 0.0523 µM
- IC50 [10]: 0.24 ± 0.108 µM
- IC50 [11]: 0.545 ± 0.039 µM
- histone and α-tubulin acetylation [12]: induced histone and α-tubulin acetylation
- IC50 [13]: 0.18 ± 0.07 µM
- IC50 [14]: 0.176 ± 0.0639 µM
- concentration inducing inhibition of HDAC2 [15]: ≤ 50 nM
- IC50 [16]: 0.161 ± 0.0203 µM
- IC50 [17]: 0.09 ± 0.03 µM
- IC50 [18]: 0.15 ± 0.03 µM
- concentration inducing inhibition of HDAC6 [19]: about 100 nM
